Assay results as given in publication PMC9871236, “Differentiated HT22 cells as a novel model for in vitro screening of serotonin reuptake inhibitors” (Frontiers in Pharmacology, 2023).

Target: T1, serotonin transporter (SERT) (Mus musculus, UniProt Q60857)
T1 construct: gene Slc6a4
Assay: fluoxetine-sensitive accumulation of fluorescent substrate ([…]) in HT22 cells
Format: cell-based

T1 sequence (Q60857 whole entry): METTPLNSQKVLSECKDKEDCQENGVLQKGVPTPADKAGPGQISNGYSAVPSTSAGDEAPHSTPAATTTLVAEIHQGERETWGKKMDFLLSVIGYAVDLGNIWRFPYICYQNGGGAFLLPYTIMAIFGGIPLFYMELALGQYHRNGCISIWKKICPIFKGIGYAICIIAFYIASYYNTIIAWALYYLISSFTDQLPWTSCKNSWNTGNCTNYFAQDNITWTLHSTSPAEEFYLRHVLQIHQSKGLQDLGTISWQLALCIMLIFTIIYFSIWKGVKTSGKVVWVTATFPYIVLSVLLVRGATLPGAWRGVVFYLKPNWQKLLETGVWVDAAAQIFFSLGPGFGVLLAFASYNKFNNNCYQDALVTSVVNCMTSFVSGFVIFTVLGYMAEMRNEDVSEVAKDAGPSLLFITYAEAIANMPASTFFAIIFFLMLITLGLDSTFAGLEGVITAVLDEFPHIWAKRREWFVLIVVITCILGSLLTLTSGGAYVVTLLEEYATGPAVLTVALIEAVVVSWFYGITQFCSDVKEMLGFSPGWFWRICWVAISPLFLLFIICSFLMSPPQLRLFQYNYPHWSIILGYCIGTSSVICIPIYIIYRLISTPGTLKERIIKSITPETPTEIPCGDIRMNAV

Question: How did the “fluoxetine-sensitive accumulation of fluorescent substrate (10 uM) in HT22 cells” value turn out when CN(C)c1ccc(-c2cc[n+](C)cc2)cc1 [APP+, 4-(4-(dimethylamino)phenyl)-1-methylpyridinium iodide] was run?
Answer: The value was “A significant increase in APP^+ reuptake was detected in differentiated HT22 cells compared to undifferentiated cells”.
